For one assay, the target named is T1, CreTPT3 (His-CreTPT3) (Chlamydomonas reinhardtii, UniProt A8HN02).
T1 sequence (A8HN02 61-406): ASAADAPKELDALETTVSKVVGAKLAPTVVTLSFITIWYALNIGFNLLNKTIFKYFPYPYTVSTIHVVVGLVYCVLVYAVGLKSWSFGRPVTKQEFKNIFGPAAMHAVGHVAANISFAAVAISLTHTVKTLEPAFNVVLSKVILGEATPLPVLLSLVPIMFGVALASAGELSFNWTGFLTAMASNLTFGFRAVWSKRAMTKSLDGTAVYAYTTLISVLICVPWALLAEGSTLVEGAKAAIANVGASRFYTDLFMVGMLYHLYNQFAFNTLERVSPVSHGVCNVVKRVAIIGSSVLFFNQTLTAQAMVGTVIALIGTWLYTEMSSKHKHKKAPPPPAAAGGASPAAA
Put plainly: inhibition of […]Pi uptake into proteoliposomes. The assay is classed as cell-based. As to conditions: competitive; 0.25 mM external Pi, 30 mM Pi inside, competitor 0.05-5 mM, 4 min.

Another assay has as its target T2, CreTPT2 (His-CreTPT2) (Chlamydomonas reinhardtii, UniProt A0A2K3DMX1).
T2 sequence (A0A2K3DMX1 71-401): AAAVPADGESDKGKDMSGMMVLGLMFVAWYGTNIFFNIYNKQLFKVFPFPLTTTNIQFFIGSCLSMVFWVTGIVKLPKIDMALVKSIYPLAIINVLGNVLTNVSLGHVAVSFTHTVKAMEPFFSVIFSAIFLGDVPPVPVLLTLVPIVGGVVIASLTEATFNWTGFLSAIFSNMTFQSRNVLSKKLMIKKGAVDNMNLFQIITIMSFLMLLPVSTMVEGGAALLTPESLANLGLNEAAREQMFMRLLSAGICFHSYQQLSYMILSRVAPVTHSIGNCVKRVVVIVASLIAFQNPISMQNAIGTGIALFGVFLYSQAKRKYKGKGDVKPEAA
Kind of assay: inhibition of […]Pi uptake into proteoliposomes. The assay is classed as cell-based. As to conditions: competitive; 0.25 mM external Pi, 30 mM Pi inside, competitor 0.05-5 mM, 4 min.

As for `O=C(O)[C@H](O)COP(=O)(O)O` [3-PGA], the figures for the Ki on CreTPT3 (His-CreTPT3) and at CreTPT2 (His-CreTPT2) were 790 ± 122 µM and 780 ± 190 µM, respectively.

With `O=C(CO)COP(=O)(O)O` [DHAP], the Ki (usually the dissociation constant of the complex between target and ligand, obtained from inhibition or displacement) at CreTPT3 (His-CreTPT3) was determined as 570 ± 13 µM; at CreTPT2 (His-CreTPT2), 710 ± 120 µM.
